pIC50: −log10 of the molar value.
What was measured:
Type in all cases: biochemical
CDK4/cyclin D1 = CDK4/cyclin D1 (Homo sapiens (Human), UniProt P11802); assay: CDK4/Cyclin D1 enzymatic activity assay (Lance TR-FRET); details: Table 2; 3 μM ATP; read-out: CDK4
Procedure: A 384-well microtiter Lance TR-FRET (time-resolved-fluorescence energy transfer) endpoint assay was used for CDK4/cyclin D1 kinase activity measurements. The same assay was used for IC50 determination of small molecule inhibitors. In general, the kinase reactions were carried out in 30 μL volumes in the reaction solution containing the following: 2 uL compound (in […]), 18 uL CDK4/cyclin D1 in Assay Buffer (50 mM HEPES, pH 7.5, 5 mM MgCl2, 2 mM MnCl2, 1 mM DTT, 0.05% BSA, 0.02% Tween-20), 10 uL of the mixture of pRb152 and ATP. The final reaction mixture contains compound (inhibitor) with the concentration varying from 0.005-10 μM, 2% DMSO, 0.3 nM CDK4/cyclin D1, 175 nM pRb152, and 3 μM ATP (Amersham Pharmacia, Cat. No. 27-2056-01). All reactions were run at room temperature in 384-well white flat-bottom OptiPlates (Perkin Elmer, Cat. No. 6007290) for 60 min then were quenched by the addition of 10 μL of 120 mM EDTA. The signals were captured by the addition of 40 μL of the Detection Solution containing the following: Detection Buffer (50 mM HEPES, pH 7.5, 30 mM EDTA, 0.1% Triton x-100, 0.05% BSA), 70 ng/mL anti-phospho-pRb(S780) (Cell Signaling Technology, Cat. No. 9307S), 1 nM Lance Eu-W1024-Rabbit anti-IgG (Perkin Elmer, Cat. No. AD0082), and 20 nM SureLight™ Allophycocyanin-Streptavidin (Perkin Elmer, Cat. No. CR130-100). The resulted solutions were incubated at room temperature for 2 hours before read on the Evision Multilabel Reader (Perkin Elmer, Envision 2102-0010).
CDk4/cyclin D1 recombinant protein used in the enzymatic activity assay was prepared by coexpressing pDEST10-CDK4 (N-terminal His6) and pFastBacDual-GST-hCyclinDl viruses in Sf21 cells.

CDK2/cyclin A = CDK2/cyclin A (Homo sapiens (Human), UniProt P24941); assay: CDK2/Cyclin A enzymatic activity assay (IMAP-FP); details: Table 2; read-out: CDK2
CDK1/cyclin B = CDK1/cyclin B (Homo sapiens (Human), UniProt P06493); assay: CDK1/Cyclin B enzymatic activity assay (IMAP-FP); details: Table 2; 20 μM ATP; read-out: CDK1
Chain of CDK1/cyclin B (P06493 whole entry, species assumed): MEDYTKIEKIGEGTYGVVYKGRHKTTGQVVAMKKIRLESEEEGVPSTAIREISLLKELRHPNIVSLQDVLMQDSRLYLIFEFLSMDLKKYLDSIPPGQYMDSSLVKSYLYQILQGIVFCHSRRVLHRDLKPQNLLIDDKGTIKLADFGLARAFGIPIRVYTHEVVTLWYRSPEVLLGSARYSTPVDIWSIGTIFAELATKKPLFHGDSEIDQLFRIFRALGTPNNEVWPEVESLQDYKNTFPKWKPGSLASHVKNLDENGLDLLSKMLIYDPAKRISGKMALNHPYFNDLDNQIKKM
Chain of CDK1/cyclin B (P14635 whole entry partner, species assumed): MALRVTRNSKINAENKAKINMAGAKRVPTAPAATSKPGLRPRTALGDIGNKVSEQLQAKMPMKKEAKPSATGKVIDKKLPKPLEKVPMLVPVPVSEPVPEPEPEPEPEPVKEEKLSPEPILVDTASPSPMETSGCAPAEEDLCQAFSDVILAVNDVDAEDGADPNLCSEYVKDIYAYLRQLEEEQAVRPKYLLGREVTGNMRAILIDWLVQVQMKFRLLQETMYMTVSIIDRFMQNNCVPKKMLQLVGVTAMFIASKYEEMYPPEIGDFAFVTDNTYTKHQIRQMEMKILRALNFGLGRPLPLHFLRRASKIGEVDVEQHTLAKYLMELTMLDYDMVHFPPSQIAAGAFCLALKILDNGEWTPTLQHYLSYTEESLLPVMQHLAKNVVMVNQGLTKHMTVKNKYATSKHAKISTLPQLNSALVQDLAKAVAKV
Text: A 384-well microtiter IMAP-FPT™ (Molecular Devices Trade Mark Technology) endpoint assay was used for CDK1/cyclin B kinase activity measurements. The same assay was used for IC50 determination of small molecule inhibitors.

Chain of CDK4/cyclin D1 (P11802 whole entry): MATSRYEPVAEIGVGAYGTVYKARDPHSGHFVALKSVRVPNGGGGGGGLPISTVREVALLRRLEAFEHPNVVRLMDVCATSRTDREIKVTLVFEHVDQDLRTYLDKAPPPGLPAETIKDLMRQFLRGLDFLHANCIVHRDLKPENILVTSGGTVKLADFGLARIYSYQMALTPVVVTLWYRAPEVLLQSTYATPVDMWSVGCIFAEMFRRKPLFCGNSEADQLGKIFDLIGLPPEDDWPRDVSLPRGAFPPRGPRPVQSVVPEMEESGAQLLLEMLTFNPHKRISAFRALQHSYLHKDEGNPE
Chain of CDK4/cyclin D1 (P24385 whole entry partner): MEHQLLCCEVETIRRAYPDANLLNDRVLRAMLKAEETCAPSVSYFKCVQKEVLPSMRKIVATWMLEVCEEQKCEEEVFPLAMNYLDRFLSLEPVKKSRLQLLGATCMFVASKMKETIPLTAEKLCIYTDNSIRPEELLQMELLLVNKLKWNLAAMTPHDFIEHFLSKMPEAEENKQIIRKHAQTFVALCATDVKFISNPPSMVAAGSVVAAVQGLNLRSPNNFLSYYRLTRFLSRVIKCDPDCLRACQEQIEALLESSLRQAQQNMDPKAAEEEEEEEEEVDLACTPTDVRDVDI

pIC50 (CDK4/cyclin D1) | pIC50 (CDK2/cyclin A) | pIC50 (CDK1/cyclin B) | SMILES
7.00 to 8.00 | < 4.82 | < 4.82 | CN(C)C(=O)c1cc2cnc(Nc3ccc(N4CCC(N)C4)cn3)nc2n1C1CCCC1 (racemic) [Example 13, Rac-2-[5-(3-Amino-pyrrolidin-1-yl)-pyridin-2-ylamino]-7-cyclopentyl-7H-pyrrolo[2,3-d]pyrimidine-6-carboxylic acid dimethylamide]
6.00 to 7.00 | < 4.82 | < 4.82 | CN(C)C(=O)c1cc2cnc(Nc3ccccn3)nc2n1C1CCCC1 [Example 1, 7-Cyclopentyl-2-(pyridin-2-ylamino)-7H-pyrrolo[2,3-d]pyrimidine-6-carboxylic acid dimethylamide]
7.00 to 8.00 | < 4.82 | < 4.82 | CN(C)C(=O)c1cc2cnc(Nc3ccc(C(=O)NC4CCNCC4)cn3)nc2n1C1CCCC1 [Example 3, 7-Cyclopentyl-2-[5-(piperidin-4-ylcarbamoyl)-pyridin-2-ylamino]-7H-pyrrolo[2,3-d]pyrimidine-6-carboxylic acid dimethylamide]
7.00 to 8.00 | < 4.82 | < 4.82 | CN(C)C(=O)c1cc2cnc(Nc3ccc(N4CCNC(=O)C4)cn3)nc2n1C1CCCC1 [Example 4, 7-Cyclopentyl-2-[5-(3-oxo-piperazin-1-yl)-pyridin-2-ylamino]-7H-pyrrolo[2,3-d]pyrimidine-6-carboxylic acid dimethylamide]
8.00 to 9.00 | < 4.82 | < 4.82 | CN(C)C(=O)c1cc2cnc(Nc3ccc(N4CCC(N(C)C)CC4)cn3)nc2n1C1CCCC1 [Example 6, 7-Cyclopentyl-2-(4-dimethylamino-3,4,5,6-tetrahydro-2-[1,3′]bipyridinyl-6′-ylamino)-7H-pyrrolo[2,3-d]pyrimidine-6-carboxylic acid dimethylamide]
7.00 to 8.00 | < 4.82 | < 4.82 | CC(=O)N1CCN(c2ccc(Nc3ncc4cc(C(=O)N(C)C)n(C5CCCC5)c4n3)nc2)CC1 [Example 7, 2-[5-(4-Acetylpiperazin-1-yl)-pyridin-2-ylamino]-7-cyclopentyl-7H-pyrrolo[2,3-d]pyrimidine-6-carboxylic acid dimethylamide]
7.00 to 8.00 | 5.10 | 4.85 | CN(C)C(=O)c1cc2cnc(Nc3ccc(N4CCCNCC4)cn3)nc2n1C1CCCC1 [Example 8, 7-Cyclopentyl-2-(5-[1,4]diazepan-1-yl-pyridin-2-ylamino)-7H-pyrrolo[2,3-d]pyrimidine-6-carboxylic acid dimethylamide]
7.00 to 8.00 | < 4.82 | < 4.82 | CN(C)C(=O)c1cc2cnc(Nc3ccc(N4CCN(CCC#N)CC4)cn3)nc2n1C1CCCC1 [Example 9, 2-{5-[4-(2-Cyano-ethyl)-piperazin-1-yl]-pyridin-2-ylamino}-7-cyclopentyl-7H-pyrrolo[2,3-d]pyrimidine-6-carboxylic acid dimethylamide]
7.00 to 8.00 | < 4.82 | < 4.82 | CN(C)C(=O)c1cc2cnc(Nc3ccc(N4CCN(CC(N)=O)CC4)cn3)nc2n1C1CCCC1 [Example 10, 2-[5-(4-Carbamoylmethyl-piperazin-1-yl)-pyridin-2-ylamino]-7-cyclopentyl-7H-pyrrolo[2,3-d]pyrimidine-6-carboxylic acid dimethylamide]
7.00 to 8.00 | 4.85 | 4.92 | CN(C)C(=O)c1cc2cnc(Nc3ccc(CN4CC(O)C4)cn3)nc2n1C1CCCC1 [Example 10A, 7-Cyclopentyl-2-[5-(3-hydroxy-azetidin-1-ylmethyl)-pyridin-2-ylamino]-7H-pyrrolo[2,3-d]pyrimidine-6-carboxylic acid dimethylamide]
8.00 to 9.00 | 5.46 | 5.89 | c1ncc(-c2cc3cnc(Nc4ccc(N5CCNCC5)cn4)nc3n2C2CCCC2)o1 [Example 11, (7-Cyclopentyl-6-oxazol-5-yl-7H-pyrrolo[2,3-d]pyrimidin-2-yl)-(5-piperazin-1-yl-pyridin-2-yl)-amine]
7.00 to 8.00 | < 4.82 | < 4.82 | CN(C)C(=O)c1cc2cnc(Nc3ccc(N4CCN(C(=O)CN)CC4)cn3)nc2n1C1CCCC1 [Example 12, 2-{5-[4-(2-Amino-acetyl)-piperazin-1-yl]-pyridin-2-ylamino}-7-cyclopentyl-7H-pyrrolo[2,3-d]pyrimidine-6-carboxylic acid dimethylamide]
7.00 to 8.00 | < 4.82 | < 4.82 | COCCN1CCN(c2ccc(Nc3ncc4cc(C(=O)N(C)C)n(C5CCCC5)c4n3)nc2)CC1 [Example 14, 7-Cyclopentyl-2-{5-[4-(2-methoxy-ethyl)-piperazin-1-yl]-pyridin-2-ylamino}-7H-pyrrolo[2,3-d]pyrimidine-6-carboxylic acid dimethylamide]
6.00 to 7.00 | < 4.82 | < 4.82 | CN(C)C(=O)c1cc2cnc(Nc3cnc(N4CCN(CCO)CC4)cn3)nc2n1C1CCCC1 [Example 15, 7-Cyclopentyl-2-[4-(2-hydroxy-ethyl)-3,4,5,6-tetrahydro-2H-[1,2]′bipyrazinyl-5′-ylamino]-7H-pyrrolo[2,3-d]pyrimidine-6-carboxylic acid dimethylamide]
8.00 to 9.00 | < 4.82 | < 4.82 | C[C@@H]1CN(c2ccc(Nc3ncc4cc(C(=O)N(C)C)n(C5CCCC5)c4n3)nc2)CCN1 [Example 16, 7-Cyclopentyl-2-[5-((R)-3-methyl-piperazin-1-yl)-pyridin-2-ylamino]-7H-pyrrolo[2,3-d]pyrimidine-6-carboxylic acid dimethylamide]
7.00 to 8.00 | < 4.82 | < 4.82 | C[C@H]1CN(c2ccc(Nc3ncc4cc(C(=O)N(C)C)n(C5CCCC5)c4n3)nc2)CCN1 [Example 17, 7-Cyclopentyl-2-[5-((S)-3-methyl-piperazin-1-yl)-pyridin-2-ylamino]-7H-pyrrolo[2,3-d]pyrimidine-6-carboxylic acid dimethylamide]
8.00 to 9.00 | 5.55 | 5.96 | c1ncc(-c2cc3cnc(Nc4ccc(CN5CCNCC5)cn4)nc3n2C2CCCC2)o1 [Example 18, (7-Cyclopentyl-6-oxazol-5-yl-7H-pyrrolo[2,3-d]pyrimidin-2-yl)-(5-piperazin-1-ylmethyl-pyridin-2-yl)-amine]
8.00 to 9.00 | < 4.82 | < 4.82 | CC1CN(c2ccc(Nc3ncc4cc(C(=O)N(C)C)n(C5CCCC5)c4n3)nc2)CCN1 (centres unmarked) [Example 19, 7-Cyclopentyl-2-[5-(3-methyl-piperazin-1-yl)-pyridin-2-ylamino]-7H-pyrrolo[2,3-d]pyrimidine-6-carboxylic acid dimethylamide]
7.00 to 8.00 | < 4.82 | < 4.82 | CN(C)C(=O)c1cc2cnc(Nc3ccc(N4CCC(O)CC4)cn3)nc2n1C1CCCC1 [Example 20, 7-Cyclopentyl-2-(4-hydroxy-3,4,5,6-tetrahydro-2H-[1,3′]bipyridinyl-6′-ylamino)-7H-pyrrolo[2,3-d]pyrimidine-6-carboxylic acid dimethylamide]
8.00 to 9.00 | < 4.82 | < 4.82 | CN(C)C(=O)c1cc2cnc(Nc3ccc(N4CCN(CCCO)CC4)cn3)nc2n1C1CCCC1 [Example 21, 7-Cyclopentyl-2-{5-[4-(3-hydroxy-propyl)-piperazin-1-yl]-pyridin-2-ylamino}-7H-pyrrolo[2,3-d]pyrimidine-6-carboxylic acid dimethylamide]
7.00 to 8.00 | < 4.82 | < 4.82 | CN(C)C(=O)c1cc2cnc(Nc3ccc(N4CCN(C(=O)N5CCCC5)CC4)cn3)nc2n1C1CCCC1 [Example 22, 7-Cyclopentyl-2-{5-[4-(pyrrolidine-1-carbonyl)-piperazin-1-yl]-pyridin-2-ylamino}-7H-pyrrolo[2,3-d]pyrimidine-6-carboxylic acid dimethylamide]
6.00 to 7.00 | – | – | CN(C)C(=O)c1cc2cnc(Nc3ccc(N4CCNCC4=O)cn3)nc2n1C1CCCC1 [Example 109, 7-cyclopentyl-2-[5-(2-oxopiperazin-1-yl)pyridin-2-ylamino]-7H-pyrrolo[2,3-d]pyrimidine-6-carboxylic acid dimethylamide]

SMILES | pIC50 (CDK4/cyclin D1) | pIC50 (CDK2/cyclin A) | pIC50 (CDK1/cyclin B)
CN(C)C(=O)c1cc2cnc(Nc3ccc(CN4CC5CCC(C4)N5)cn3)nc2n1C1CCCC1 [Example 73, 7-Cyclopentyl-2-[5-(3,8-diaza-bicyclo[3.2.1]oct-3-ylmethyl)-pyridin-2-ylamino]-7H-pyrrolo[2,3-d]pyrimidine-6-carboxylic acid dimethylamide] | 7.00 to 8.00 | – | –

Reference: US8962630B2, “Pyrrolopyrimidine compounds and their uses” (Novartis AG, priority 2008, dated 2015)
